From publication PMC11672637, “7-O-Carboxylic Acid-Substituted 3-O-Alkyl Difluoroquercetin; An Aztreonam-Potentiating Agent Against Carbapenemase-Producing Pseudomonas aeruginosa Through Simultaneous Inhibition of Metallo-β-Lactamase and Efflux Pump” (Antibiotics, 2024)
≈ marks a conversion by molar mass, not a printed value. Like-named read-outs stand apart in the source and are kept apart here.

Legend:
Type in all cases: cell-based, P. aeruginosa
PA-032, blaIMP = test: MIC / checkerboard with ATM; set-up: key to Susceptibility category: S: susceptible; I: intermediate; R: resistant; details: for MIC: Pseudomonas aeruginosa
All CPPA (n = 26) = test: MIC distribution over clinical isolates; details: Pseudomonas aeruginosa
PA-014, blaGES = test: MIC / checkerboard with ATM; set-up: key to Susceptibility category: S: susceptible; I: intermediate; R: resistant
PA-042, blaIMP/NDM = test: MIC / checkerboard with ATM; set-up: key to Susceptibility category: S: susceptible; I: intermediate; R: resistant; details: for MIC: Pseudomonas aeruginosa
PA-003, blaVIM = test: MIC / checkerboard with ATM; set-up: key to Susceptibility category: S: susceptible; I: intermediate; R: resistant
PA-026, blaNDM = test: MIC / checkerboard with ATM; set-up: key to Susceptibility category: S: susceptible; I: intermediate; R: resistant
[1] = test system: ATM-Resistant CPPA (n = 15); test: MIC distribution over clinical isolates; details: Pseudomonas aeruginosa
PA-039, blaNDM = test: MIC / checkerboard with ATM; set-up: key to Susceptibility category: S: susceptible; I: intermediate; R: resistant; details: PA-039
PA-029, blaIMP = test: MIC / checkerboard with ATM; set-up: key to Susceptibility category: S: susceptible; I: intermediate; R: resistant; details: for MIC: Pseudomonas aeruginosa
PA-044, blaNDM = test: MIC / checkerboard with ATM; set-up: key to Susceptibility category: S: susceptible; I: intermediate; R: resistant
[2] = read-out: MIC50 of ATM, 5 at 0 mg/L
[3] = read-out: MIC90 of ATM, 5 at 0 mg/L

In the case of `C[C@H]1[C@H](NC(=O)/C(=N\OC(C)(C)C(=O)O)c2csc(N)n2)C(=O)N1S(=O)(=O)O` [ATM, aztreonam], the “Susceptibility to ATM” value (PA-032, blaIMP; PA-032, ATM alone) is reported as “S (S (sensitive, MIC ≤ 8 mg/L))”, the Susceptibility category (PA-032, blaIMP; PA-032, Table S2) is reported as “S” and the MIC (PA-032, blaIMP; PA-032, Table S2, read-out: MIC value) is reported as 4 µg/mL. For the same compound, the MIC (PA-032, blaIMP; read-out: MIC of ATM, PA-032, ATM alone (5 at 0 mg/L)) was 4 µg/mL, the MIC50 (All CPPA (n = 26); [2]) was 16 µg/mL (≈ 36.7 µM) and the MIC90 (All CPPA (n = 26); [3]) was 32 µg/mL (≈ 73.5 µM). For the same compound, the “Susceptibility to ATM” value (PA-014, blaGES; PA-014, ATM alone) was “I (I (intermediate, MIC = 16 mg/L))”, the Susceptibility category (PA-014, blaGES; PA-014, Table S2) was “I” and the MIC (PA-014, blaGES; Pseudomonas aeruginosa, read-out: MIC of ATM, PA-014, ATM alone (5 at 0 mg/L)) was 16 µg/mL. The “Susceptibility to ATM” value (PA-042, blaIMP/NDM; PA-042, ATM alone) was “S (S (sensitive, MIC ≤ 8 mg/L))”, the Susceptibility category (PA-042, blaIMP/NDM; PA-042, Table S2) was “S” and the MIC (PA-042, blaIMP/NDM; PA-042, Table S2, read-out: MIC value) was 2 µg/mL. The MIC (PA-042, blaIMP/NDM; read-out: MIC of ATM, PA-042, ATM alone (5 at 0 mg/L)) was 2 µg/mL, the “Susceptibility to ATM” value (PA-003, blaVIM; PA-003, ATM alone) was “R (R (resistant, MIC ≥ 32 mg/L))” and the Susceptibility category (PA-003, blaVIM; PA-003, Table S2) was “I”. The MIC (PA-003, blaVIM; Pseudomonas aeruginosa, read-out: MIC of ATM) was 32 µg/mL, the “Susceptibility to ATM” value (PA-026, blaNDM; PA-026, ATM alone) was “S (S (sensitive, MIC ≤ 8 mg/L))” and the Susceptibility category (PA-026, blaNDM; PA-026, Table S2) was “S”. For the same compound, the MIC (PA-026, blaNDM; Pseudomonas aeruginosa, read-out: MIC of ATM, PA-026, ATM alone (5 at 0 mg/L)) was 8 µg/mL, the MIC50 [1, 2] was 16 µg/mL (≈ 36.7 µM) and the MIC90 [1, 3] was 64 µg/mL (≈ 147 µM). The “Susceptibility to ATM” value (PA-039, blaNDM; ATM alone) was “I (I (intermediate, MIC = 16 mg/L))”, the Susceptibility category (PA-039, blaNDM; Table S2) was “R” and the “Susceptibility to ATM” value (PA-029, blaIMP; PA-029, ATM alone) was “R (R (resistant, MIC ≥ 32 mg/L))”. For the same compound, the Susceptibility category (PA-029, blaIMP; PA-029, Table S2) was “R”, the MIC (PA-029, blaIMP; PA-029, Table S2, read-out: MIC value) was 32 µg/mL and the MIC (PA-029, blaIMP; read-out: MIC of ATM, PA-029, ATM alone (5 at 0 mg/L)) was 32 µg/mL. The “Susceptibility to ATM” value (PA-044, blaNDM; PA-044, ATM alone) was “I (I (intermediate, MIC = 16 mg/L))”, the Susceptibility category (PA-044, blaNDM; PA-044, Table S2) was “I” and the MIC (PA-044, blaNDM; Pseudomonas aeruginosa, read-out: MIC of ATM, PA-044, ATM alone (5 at 0 mg/L)) was 16 µg/mL.
